This test addresses WDR5 (Homo sapiens, UniProt P61964). Put plainly: Competition-based fluorescence polarization anisotropy assay. The note with it: binding to WDR5; displacement of FITC-labeled small molecule probe (analogous to Example J2 or HCH-25) or peptide probe FITC-AHx-SEEEIDVVSV; pH 6.0; Ki converted from IC50. An outline of the steps: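 Competition fluorescence polarization anisotropy binding to WDR5 using a FITC-labeled peptide probe or a fluorescently labeled small-molecule probe. Buffer: 200 mM phosphate, 300 mM NaCl, 0.5 mM TCEP, 0.1% Chaps, pH 6.0. Displacement data were converted to Ki.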

As usually defined, the Ki is a dissociation constant, usually derived from enzyme kinetics or from competition with a known ligand. Low readings indicate higher affinity, high ones lower affinity. On to `CNC(=O)c1cc(OC(F)(F)F)cc(NS(=O)(=O)c2cc(Br)cc(Cl)c2O)c1O` [HCH-63, 3-((5-Bromo-3-chloro-2-hydroxyphenyl)sulfonamido)-2-hydroxy-N-methyl-5-(trifluoromethoxy)benzamide], for which the Ki came to 200 nM. Then `CNC(=O)c1cc(C2CC2)cc(NS(=O)(=O)c2cc(Br)ccc2O)c1F` [Example J141, 3-((5-Bromo-2-hydroxyphenyl)sulfonamido)-5-cyclopropyl-2-fluoro-N-methylbenzamide], with 960 nM; and `O=C(NC1CCOC1)c1cc(Cl)cc(NS(=O)(=O)c2cc(Br)ccc2O)c1O` (centres unmarked) [Example J18, 3-((5-Bromo-2-hydroxyphenyl)sulfonamido)-5-chloro-2-hydroxy-N-(tetrahydrofuran-3-yl)benzamide], with 1350 nM; and `CCc1cc(O)c(S(=O)(=O)Nc2cc(Cl)cc(C(=O)O)c2O)cc1Cl` [Example J12, 5-Chloro-3-((5-chloro-4-ethyl-2-hydroxyphenyl)sulfonamido)-2-hydroxybenzoic acid], with 11100 nM. Then `CS(=O)(=O)c1cc(Cl)cc(NS(=O)(=O)c2cc(Br)cc(Cl)c2O)c1F` [Example S54, 5-Bromo-3-chloro-N-(5-chloro-2-fluoro-3-(methylsulfonyl)phenyl)-2-hydroxybenzenesulfonamide], with 800 nM.

`N#CC1(c2cc(NS(=O)(=O)c3cc(Br)ccc3O)c(O)c(C(=O)NCc3cc[nH]c(=O)c3)c2)CCC1` [Example J222, 3-((5-Bromo-2-hydroxyphenyl)sulfonamido)-5-(1-cyanocyclobutyl)-2-hydroxy-N-((2-oxo-1,2-dihydropyridin-4-yl)methyl)benzamide] registered a Ki of 410 nM. Then `CC(C)[S+]([O-])c1cc(Cl)cc(NS(=O)(=O)c2cc(Br)cc(Cl)c2O)c1O` (centres unmarked) [Example S23.2, 5-Bromo-3-chloro-N-(5-chloro-2-hydroxy-3-(isopropylsulfinyl)phenyl)-2-hydroxybenzenesulfonamide], with 330 nM.

Take `CNC(=O)c1cc(Cl)cc(NS(=O)(=O)c2cc(Br)cc(Cl)c2O)c1O` [Example J40, 3-((5-Bromo-3-chloro-2-hydroxyphenyl)sulfonamido)-5-chloro-2-hydroxy-N-methylbenzamide]: affinity was put at a Ki of 240 nM. Then `CC(C)[C@H](C)Nc1ccc(Br)cc1S(=O)(=O)Nc1cc(C2CC2)cc(C(=O)O)c1O` [Example J76, (S)-3-((5-Bromo-2-((3-methylbutan-2-yl)amino)phenyl)sulfonamido)-5-cyclopropyl-2-hydroxybenzoic acid], with 3240 nM; and `O=C(NCCN1CCOCC1)c1c(O)c(NS(=O)(=O)c2cc(Br)cc(Cl)c2O)cc(C2CC2)c1F` [Example J148, 3-((5-Bromo-3-chloro-2-hydroxyphenyl)sulfonamido)-5-cyclopropyl-6-fluoro-2-hydroxy-N-(2-morpholinoethyl)benzamide], with 600 nM.

Compound `N#CC1(c2cc(NS(=O)(=O)c3cc(Br)cc4c3OCC4)c(O)c(C(=O)O)c2)CCC1` [SN-10, 3-((5-bromo-2,3-dihydrobenzofuran)-7-sulfonamido)-5-(1-cyanocyclobutyl)-2-hydroxybenzoic acid] had a Ki of 50 nM. Then `NC(=O)[C@H](CO)NC(=O)c1cc(OC(F)(F)F)cc(NS(=O)(=O)c2cc(Br)cc(Cl)c2O)c1O` [HCH-56, (S)—N-(1-Amino-3-hydroxy-1-oxopropan-2-yl)-3-((5-bromo-3-chloro-2-hydroxyphenyl)sulfonamido)-2-hydroxy-5-(trifluoromethoxy)benzamide], with 190 nM; and `CNC(=O)c1cc(C2(C#N)CCC2)cc(NS(=O)(=O)c2cc(Br)ccc2O)c1O` [Example J208, 3-((5-Bromo-2-hydroxyphenyl)sulfonamido)-5-(1-cyanocyclobutyl)-2-hydroxy-N-methylbenzamide], with 390 nM.

Compound `O=C(NCC1CCOC1)c1cc(Cl)cc(NS(=O)(=O)c2cc(Br)ccc2O)c1O` (centres unmarked) [Example J23, 3-((5-Bromo-2-hydroxyphenyl)sulfonamido)-5-chloro-2-hydroxy-N-((tetrahydrofuran-3-yl)methyl)benzamide] yielded a Ki of 490 nM. Then `O=C(NCCO)c1cc(Cl)cc(NS(=O)(=O)c2cc(Br)cc(Cl)c2O)c1O` [Example J41, 3-((5-Bromo-3-chloro-2-hydroxyphenyl)sulfonamido)-5-chloro-2-hydroxy-N-(2-hydroxyethyl)benzamide], with 2480 nM; and `COc1ccc(Br)cc1S(=O)(=O)Nc1cc(N2CCOCC2)cc(C(=O)O)c1O` [Example J194, 3-((5-Bromo-2-methoxyphenyl)sulfonamido)-2-hydroxy-5-morpholinobenzoic acid], with 10300 nM.

As to `CNS(=O)(=O)c1cc(Cl)cc(NS(=O)(=O)c2cc(Br)cc(Cl)c2O)c1O` [Example S28, 5-bromo-3-chloro-N-(5-chloro-2-hydroxy-3-(N-methylsulfamoyl)phenyl)-2-hydroxybenzenesulfonamide], the affinity, expressed as Ki, was 20700 nM. Then `O=[N+]([O-])c1cc(Cl)cc(NS(=O)(=O)c2cc(Br)cc(OC(F)(F)F)c2O)c1O` [NE9, 5-Bromo-N-(5-chloro-2-hydroxy-3-nitrophenyl)-2-hydroxy-3-(trifluoromethoxy)benzenesulfonamide], with 390 nM; and `O=S(=O)(Nc1cc(Cl)ccc1O)c1cccc(Br)c1` [HCH-1-9-4re, 3-Bromo-N-(5-chloro-2-hydroxyphenyl)benzenesulfonamide], with 36100 nM. Then `COc1ccc(Br)cc1S(=O)(=O)Nc1cc(Cl)cc(C(=O)NCC2CCCO2)c1O` (centres unmarked) [Example J65, 3-((5-Bromo-2-methoxyphenyl)sulfonamido)-5-chloro-2-hydroxy-N-((tetrahydrofuran-2-yl)methyl)benzamide], with 1020 nM; and `CNC(=O)c1cc(C2(C#N)CCC2)cc(NS(=O)(=O)c2cc(Br)cc(Cl)c2OC)c1O` [SN-3, 3-((5-bromo-3-chloro-2-methoxyphenyl)sulfonamido)-5-(1-cyanocyclobutyl)-2-hydroxy-N-methylbenzamide], with 13700 nM. In turn, `O=C(O)c1cc(-c2cccs2)cc(NS(=O)(=O)c2cc(Br)ccc2O)c1O` [Example J196, 3-((5-bromo-2-hydroxyphenyl)sulfonamido)-2-hydroxy-5-(thiophen-2-yl)benzoic acid] returned a Ki of 1070 nM. Compound `COC[C@H]1CCCN1c1ccc(Br)cc1S(=O)(=O)Nc1cc(C2CC2)cc(C(=O)O)c1O` [Example J78, (R)-3-((5-Bromo-2-(2-(methoxymethyl)pyrrolidin-1-yl)phenyl)sulfonamido)-5-cyclopropyl-2-hydroxybenzoic acid] came in with a Ki of 3990 nM. Compound `O=C(O)c1cc(Cl)cc(NS(=O)(=O)c2cc(Br)cc(F)c2O)c1O` [Example J5, 3-((5-Bromo-3-fluoro-2-hydroxyphenyl)sulfonamido)-5-chloro-2-hydroxybenzoic acid] gave a Ki of 340 nM. Then `CS(=O)(=O)c1cc(S(F)(F)(F)(F)F)cc(NS(=O)(=O)c2cc(Br)cc(Cl)c2O)c1O` [Example S18, 5-Bromo-3-chloro-2-hydroxy-N-(2-hydroxy-3-(methylsulfonyl)-5-(pentafluoro-λ^6-sulfaneyl)phenyl)benzenesulfonamide], with 30 nM; and `CCCc1cc(Br)cc(S(=O)(=O)Nc2cc(Cl)cc(C(=O)O)c2O)c1O` [HCH-17, 3-((5-Bromo-2-hydroxy-3-propylphenyl)sulfonamido)-5-chloro-2-hydroxybenzoic acid], with 320 nM. Then `COCCNS(=O)(=O)c1cc(Cl)cc(NS(=O)(=O)c2cc(Br)cc(Cl)c2O)c1O` [Example S30, 5-bromo-3-chloro-N-(5-chloro-2-hydroxy-3-(N-(2-methoxyethyl)sulfamoyl)phenyl)-2-hydroxybenzenesulfonamide], with 3050 nM; and `CC(C)[C@@H](C)Nc1ccc(Br)cc1S(=O)(=O)Nc1cc(C2CC2)cc(C(=O)O)c1O` [Example J75, (R)-3-((5-Bromo-2-((3-methylbutan-2-yl)amino)phenyl)sulfonamido)-5-cyclopropyl-2-hydroxybenzoic acid], with 5170 nM; and `N#CC1(c2cc(NS(=O)(=O)c3cc(Br)ccc3O)c(O)c(C(=O)O)c2)CCCCC1` [Example J231, 3-((5-Bromo-2-hydroxyphenyl)sulfonamido)-5-(1-cyanocyclohexyl)-2-hydroxybenzoic acid], with 20 nM. Then `C[C@H](NC(=O)c1cc(OC(F)(F)F)cc(NS(=O)(=O)c2cc(Br)ccc2O)c1O)C(N)=O` (stereo in doubt) [HCH-48, N-(1-Amino-1-oxopropan-2-yl)-3-((5-bromo-2-hydroxyphenyl)sulfonamido)-2-hydroxy-5-(trifluoromethoxy)benzamide], with 250 nM; and `O=C(O)c1cc(S(F)(F)(F)(F)F)cc(NS(=O)(=O)c2cc(Br)cc3cccnc23)c1O` [Example S68], with 20 nM; and `CS(=O)(=O)c1cc(S(F)(F)(F)(F)F)cc(NS(=O)(=O)c2cc(Br)ccc2O)c1O` [Example S19, 5-Bromo-2-hydroxy-N-(2-hydroxy-3-(methylsulfonyl)-5-(pentafluoro-λ^6-sulfaneyl)phenyl)benzenesulfonamide], with 100 nM.

As to `O=C(O)c1cc(Cl)cc(NS(=O)(=O)c2cc(Br)cc([N+](=O)[O-])c2O)c1O` [Example J6, 3-((5-Bromo-2-hydroxy-3-nitrophenyl)sulfonamido)-5-chloro-2-hydroxybenzoic acid], the affinity corresponds to a Ki of 110 nM. The compound `O=C(O)c1cc(OC(F)(F)F)cc(NS(=O)(=O)c2cc(Br)cc(Cl)c2O)c1O` [HCH-24, 3-((5-Bromo-3-chloro-2-hydroxyphenyl)sulfonamido)-2-hydroxy-5-(trifluoromethoxy)benzoic acid] came in with a Ki of 40 nM. Then `COCCNC(=O)c1cc(C2CC2)cc(NS(=O)(=O)c2cc(Br)ccc2O)c1F` [Example J142, 3-((5-Bromo-2-hydroxyphenyl)sulfonamido)-5-cyclopropyl-2-fluoro-N-(2-methoxyethyl)benzamide], with 1480 nM.
